The text below walks through data of ChEMBL document CHEMBL5523757, “Discovery, Synthesis, and Activity Evaluation of Novel Five-Membered Sulfur-Containing Heterocyclic Nucleosides as Potential Anticancer Agents In Vitro and In Vivo” (J Med Chem, 2024).

Common to all, as to assay type: functional, cell-based
One experiment concerns HeLa. The experiment in a line: Antiproliferative activity against human HeLa cells assessed as inhibition of cell growth incubated for 48 hrs by CCK-8 assay. (In general: Tetrazolium assays rely on reduction of a dye to a coloured formazan, in cell work by metabolically active cells.)
A further experiment relates to MCF7. The experiment in a line: Antiproliferative activity against human MCF7 cells assessed as inhibition of cell growth incubated for 48 hrs by CCK-8 assay.
In another experiment the test system is HCT-116. Briefly: Antiproliferative activity against human HCT-116 cells assessed as inhibition of cell growth incubated for 48 hrs by CCK-8 assay.
Another experiment has as its system A549. Briefly: Antiproliferative activity against human A549 cells assessed as inhibition of cell growth incubated for 48 hrs by CCK-8 assay.
For another experiment, the system named is PANC-1. The experiment in a line: Antiproliferative activity against human PANC-1 cells assessed as inhibition of cell growth incubated for 48 hrs by CCK-8 assay.
For another experiment, the system named is HepG2. The experiment in a line: Antiproliferative activity against human HepG2 cells assessed as inhibition of cell growth incubated for 48 hrs by CCK-8 assay.

With `CCOC(=O)C[C@H]1CSC[C@]1(C(=O)OCC)n1cnc2c(Cl)nc(Cl)nc21`, the 50% inhibitory concentration (IC50) in the experiment on HeLa (hela) is 7.43 µM; in the experiment on MCF7 (mcf7), 5.82 µM; in the experiment on HCT-116 (hct-116), 4.16 µM; in the experiment on A549 (a549), greater than 50 µM; in the experiment with PANC-1 (panc-1), 27.5 µM; in the experiment with HepG2 (hepg2), greater than 50 µM.

For `CCOC(=O)C[C@@H]1CSC[C@@]1(C(=O)OCC)n1cnc2c(Cl)nc(Cl)nc21`, the IC50 with HeLa (Homo sapiens, HeLa, 48 h) stood at 2.78 µM; in the experiment with MCF7 (Homo sapiens, MCF7, 48 h) it was 4.54 µM; with HCT-116 (Homo sapiens, HCT-116, 48 h), 3.69 µM; in the experiment on A549 (Homo sapiens, A549, 48 h) it was 41.4 µM; in the experiment with PANC-1 (Homo sapiens, PANC-1, 48 h) it was 11.1 µM; with HepG2 (Homo sapiens, HepG2, 48 h) it was 23.8 µM.

With `CCOC(=O)C[C@@H]1CSC[C@]1(C(=O)OC)n1cnc2c(Cl)ncnc21` (racemic), the IC50 with HeLa (Homo sapiens, HeLa, 48 h) was 12.5 µM; with MCF7 (Homo sapiens, MCF7, 48 h), greater than 50 µM; in the experiment with HCT-116 (Homo sapiens, HCT-116, 48 h), 31.8 µM.

Consider `CCOC(=O)C[C@@H]1CSC[C@]1(C(=O)OCC)n1cnc2cnc(Cl)nc21` (racemic), for which the IC50 in the experiment on HeLa (Homo sapiens, HeLa, 48 h) is greater than 50 µM; with MCF7 (Homo sapiens, MCF7, 48 h), greater than 50 µM; in the experiment with HCT-116 (Homo sapiens, HCT-116, 48 h) it was greater than 50 µM.

As for `CCOC(=O)C[C@@H]1CSC[C@]1(C(=O)OCC)n1cnc2c(Cl)nc(Cl)nc21` (racemic), the half-inhibitory concentration (IC50) with HeLa (Homo sapiens, HeLa, 48 h) came out at 9.5 µM; with MCF7 (Homo sapiens, MCF7, 48 h) it was 4.06 µM; in the experiment on HCT-116 (Homo sapiens, HCT-116, 48 h), 6.89 µM.

With `CCOC(=O)C[C@@H]1CSC[C@]1(C(=O)OC(C)C)n1cnc2c(Cl)ncnc21` (racemic), the IC50 in the experiment on HeLa (Homo sapiens, HeLa, 48 h) turned out to be 13.6 µM; with MCF7 (Homo sapiens, MCF7, 48 h), 44.8 µM; with HCT-116 (Homo sapiens, HCT-116, 48 h), 38.2 µM.

On to `CCOC(=O)C[C@@H]1CSC[C@]1(C(=O)OCC)n1cnc2cncnc21` (racemic), for which the IC50 was greater than 50 µM in the experiment with HeLa (Homo sapiens, HeLa, 48 h); greater than 50 µM in the experiment on MCF7 (Homo sapiens, MCF7, 48 h); greater than 50 µM with HCT-116 (Homo sapiens, HCT-116, 48 h).

Regarding `CCOC(=O)C[C@@H]1CSC[C@]1(C(=O)OCC)n1cnc2c(Cl)nc(F)nc21` (racemic), the 50% inhibitory concentration (IC50) in the experiment with HeLa (Homo sapiens, HeLa, 48 h) came out at 14.5 µM; in the experiment on MCF7 (Homo sapiens, MCF7, 48 h) it was 27.9 µM; with HCT-116 (Homo sapiens, HCT-116, 48 h), 15.9 µM.

`O=c1[nH]cc(F)c(=O)[nH]1` [FLUOROURACIL]: the IC50 in the experiment on HeLa (Homo sapiens, HeLa, 48 h) was found to be 9.75 µM; with MCF7 (Homo sapiens, MCF7, 48 h), 11.6 µM; in the experiment on HCT-116 (Homo sapiens, HCT-116, 48 h) it was 8.75 µM; in the experiment with PANC-1 (Homo sapiens, PANC-1, 48 h), 44.1 µM; with HepG2 (Homo sapiens, HepG2, 48 h), 12.9 µM.

One may read the IC50 as the concentration needed to halve the response being measured.
